US10538555B2, “Macrocyclic inhibitors of the PD-1/PD-L1 and CD80(B7-1)/PD-L1 protein/protein interactions” (BRISTOL-MYERS SQUIBB COMPANY, priority 2014, dated 2020)
Where a SMILES comes first, the peptide text is derived from it. Bridges are numbered along the chain shown (N, C = ends). [ ]: non-standard residue; d: D form. ξ: configuration not given here. Trp(1-CH2COOH) = N[C@@H](Cc1cn(CC(=O)O)c2ccccc12)C(=O)O; Hyp = O=C(O)[C@@H]1C[C@@H](O)CN1; NMeNle = CCCC[C@H](NC)C(=O)O; hSer = N[C@@H](CCO)C(=O)O; NMeA = CN[C@@H](C)C(=O)O; Dab = NCC[C@H](N)C(=O)O; Dap = NC[C@H](N)C(=O)O; ξP = O=C(O)C1CCCN1; Sar = CNCC(=O)O

Each compound was assayed against T1, Human PD-L1/PD-1 (Homo sapiens, UniProt Q9NZQ7) (assay: HTRF Human PD-L1/PD-1 binding assay (PD-1-Ig/PD-L1-His)). Details: PD-L1-His 10 nM, PD-1-Ig 20 nM; class symbol; read-out: HTRF Human PD-L1/PD-1 Binding Assay IC50 Range.
T1 construct: TVMV protease cleavage site (C); made in house; host or cells: HEK293T cells
T1 sequence (Q9NZQ7 with tags, fused parts or gaps): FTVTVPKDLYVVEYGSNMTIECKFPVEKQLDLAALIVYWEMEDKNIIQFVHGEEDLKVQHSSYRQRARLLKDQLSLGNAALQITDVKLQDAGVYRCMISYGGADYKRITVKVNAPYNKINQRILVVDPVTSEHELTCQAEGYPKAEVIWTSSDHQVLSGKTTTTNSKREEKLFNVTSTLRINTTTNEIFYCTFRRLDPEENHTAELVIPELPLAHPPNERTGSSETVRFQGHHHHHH
Procedure, shortened: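 HTRF read-out (665/620 nm ratio) after 30 min equilibration with Eu-cryptate anti-Ig mAb (1 nM) and APC anti-His mAb (20 nM). Peptides preincubated 15 min with PD-L1-His (10 nM), then PD-1-Ig (20 nM) added for 15 min.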

SMILES | IC50
CCCC[C@H]1C(=O)N(C)[C@@H](CCCC)C(=O)N[C@@H](CC(C)C)C(=O)N[C@H](C(=O)NCC(N)=O)CSCC(=O)N[C@@H](Cc2ccc(O)cc2)C(=O)N(C)[C@@H](C)C(=O)N[C@@H](CC(N)=O)C(=O)N2CCC[C@H]2C(=O)N[C@@H](CN)C(=O)N[C@@H](CC(C)C)C(=O)N(C)CC(=O)N[C@@H](Cc2c[nH]c3ccccc23)C(=O)N[C@@H](CCN)C(=O)N[C@@H](Cc2cn(CC(=O)O)c3ccccc23)C(=O)N1C [Example 6170] ({CH2CO}-Y[NMeA]NP[Dap]L[Sar]W[Dab][Trp(1-CH2COOH)][NMeNle][NMeNle]LCG-NH2; thioether N-14) | 1 to 9.9 nM
CCCC[C@H]1C(=O)N(C)[C@@H](CCCC)C(=O)N[C@@H](CCC(=O)O)C(=O)N[C@H](C(=O)NCC(N)=O)CSCC(=O)N[C@@H](Cc2ccc(O)cc2)C(=O)N(C)[C@@H](C)C(=O)N[C@@H](CC(=O)O)C(=O)N2CCCC2C(=O)N[C@@H](CN)C(=O)N[C@@H](CCC(=O)O)C(=O)N2C[C@H](O)C[C@H]2C(=O)N[C@@H](Cc2c[nH]c3ccccc23)C(=O)N[C@@H](CCN)C(=O)N[C@@H](Cc2cn(CC(=O)O)c3ccccc23)C(=O)N1C (stereo partly drawn) [Example 6172] ({CH2CO}-Y[NMeA]D[ξP][Dap]E[Hyp]W[Dab][Trp(1-CH2COOH)][NMeNle][NMeNle]ECG-NH2; thioether N-14) | 1 to 9.9 nM
CCCC[C@H]1C(=O)N(C)[C@@H](CCCC)C(=O)N[C@@H](CC(C)C)C(=O)N[C@H](C(=O)NCC(N)=O)CSCC(=O)N[C@@H](Cc2ccc(O)cc2)C(=O)N(C)[C@@H](C)C(=O)N[C@@H](CC(N)=O)C(=O)N2CCC[C@H]2C(=O)N[C@@H](Cc2cnc[nH]2)C(=O)N[C@@H](CCC(N)=O)C(=O)N2C[C@H](O)C[C@H]2C(=O)N[C@@H](Cc2c[nH]c3ccccc23)C(=O)N[C@@H](CO)C(=O)N[C@@H](Cc2cn(CC(=O)O)c3ccccc23)C(=O)N1C [Example 6176] ({CH2CO}-Y[NMeA]NPHQ[Hyp]WS[Trp(1-CH2COOH)][NMeNle][NMeNle]LCG-NH2; thioether N-14) | 10 to 99.9 nM
CCCC[C@H]1C(=O)N(C)[C@@H](CCCC)C(=O)N[C@@H](CC(C)C)C(=O)N[C@H](C(N)=O)CSCC(=O)N[C@@H](Cc2ccc(O)cc2)C(=O)N(C)[C@@H](C)C(=O)N[C@@H](CC(N)=O)C(=O)N2CCC[C@H]2C(=O)N[C@@H](CN)C(=O)N[C@@H](CC(C)C)C(=O)N2C[C@H](O)C[C@H]2C(=O)N[C@@H](Cc2c[nH]c3ccccc23)C(=O)N[C@@H](CO)C(=O)N[C@@H](Cc2cn(CC(=O)O)c3ccccc23)C(=O)N1C [Example 6180] ({CH2CO}-Y[NMeA]NP[Dap]L[Hyp]WS[Trp(1-CH2COOH)][NMeNle][NMeNle]LC-NH2; thioether N-14) | 1 to 9.9 nM
CCCC[C@H]1C(=O)N(C)[C@@H](CCCC)C(=O)N[C@@H](CCC(=O)O)C(=O)N[C@H](C(=O)NCC(N)=O)CSCC(=O)N[C@@H](Cc2ccc(O)cc2)C(=O)N(C)[C@@H](C)C(=O)N[C@@H](CC(=O)O)C(=O)N2CCC[C@H]2C(=O)N[C@@H](CN)C(=O)N[C@@H](CCC(N)=O)C(=O)N2C[C@H](O)C[C@H]2C(=O)N[C@@H](Cc2c[nH]c3ccccc23)C(=O)N[C@@H](CCN)C(=O)N[C@@H](Cc2cn(CC(=O)O)c3ccccc23)C(=O)N1C [Example 6189] ({CH2CO}-Y[NMeA]DP[Dap]Q[Hyp]W[Dab][Trp(1-CH2COOH)][NMeNle][NMeNle]ECG-NH2; thioether N-14) | 1 to 9.9 nM
CCCC[C@H]1C(=O)N(C)[C@@H](CCCC)C(=O)N[C@@H](CCCNC(=N)N)C(=O)N[C@H](C(=O)NCC(N)=O)CSCC(=O)N[C@@H](Cc2ccc(O)cc2)C(=O)N(C)[C@@H](C)C(=O)N[C@@H](CC(N)=O)C(=O)N2CCC[C@H]2C(=O)N[C@@H](Cc2cnc[nH]2)C(=O)N[C@@H](CO)C(=O)N2C[C@H](O)C[C@H]2C(=O)N[C@@H](Cc2c[nH]c3ccccc23)C(=O)N[C@@H](CO)C(=O)N[C@@H](Cc2cn(CC(=O)O)c3ccccc23)C(=O)N1C [Example 6202] ({CH2CO}-Y[NMeA]NPHS[Hyp]WS[Trp(1-CH2COOH)][NMeNle][NMeNle]RCG-NH2; thioether N-14) | 10 to 99.9 nM
CCCC[C@H]1C(=O)N(C)[C@@H](CCCC)C(=O)N[C@@H](CC(C)C)C(=O)N[C@H](C(N)=O)CSCC(=O)N[C@@H](Cc2ccc(O)cc2)C(=O)N(C)[C@@H](C)C(=O)N[C@@H](CC(N)=O)C(=O)N2CCC[C@H]2C(=O)N[C@@H](CN)C(=O)N[C@@H](CC(C)C)C(=O)N2C[C@H](O)C[C@H]2C(=O)N[C@@H](Cc2c[nH]c3ccccc23)C(=O)N[C@@H](CCC(=O)O)C(=O)N[C@@H](Cc2cn(CC(=O)O)c3ccccc23)C(=O)N1C [Example 6203] ({CH2CO}-Y[NMeA]NP[Dap]L[Hyp]WE[Trp(1-CH2COOH)][NMeNle][NMeNle]LC-NH2; thioether N-14) | 1 to 9.9 nM
CCCC[C@H]1C(=O)N(C)[C@@H](CCCC)C(=O)N[C@@H](CC(C)C)C(=O)N[C@H](C(=O)NCC(N)=O)CSCC(=O)N[C@@H](Cc2ccc(O)cc2)C(=O)N(C)[C@@H](C)C(=O)N[C@@H](CC(N)=O)C(=O)N2CCC[C@H]2C(=O)N[C@@H](Cc2cnc[nH]2)C(=O)N[C@@H](CCCCN)C(=O)N2C[C@H](O)C[C@H]2C(=O)N[C@@H](Cc2c[nH]c3ccccc23)C(=O)N[C@@H](CCCCN)C(=O)N[C@@H](Cc2cn(CC(=O)O)c3ccccc23)C(=O)N1C [Example 6204] ({CH2CO}-Y[NMeA]NPHK[Hyp]WK[Trp(1-CH2COOH)][NMeNle][NMeNle]LCG-NH2; thioether N-14) | 1 to 9.9 nM
CCCC[C@H]1C(=O)N(C)[C@@H](CCCC)C(=O)N[C@@H](CC(=O)O)C(=O)N[C@H](C(=O)NCC(N)=O)CSCC(=O)N[C@@H](Cc2ccc(O)cc2)C(=O)N(C)[C@@H](C)C(=O)N[C@@H](CC(=O)O)C(=O)N2CCC[C@H]2C(=O)N[C@@H](Cc2cnc[nH]2)C(=O)N[C@@H](CCCCN)C(=O)N2C[C@H](O)C[C@H]2C(=O)N[C@@H](Cc2c[nH]c3ccccc23)C(=O)N[C@@H](CCCCN)C(=O)N[C@@H](Cc2cn(CC(=O)O)c3ccccc23)C(=O)N1C [Example 6209] ({CH2CO}-Y[NMeA]DPHK[Hyp]WK[Trp(1-CH2COOH)][NMeNle][NMeNle]DCG-NH2; thioether N-14) | 1 to 9.9 nM
CCCC[C@H]1C(=O)N(C)[C@@H](CCCC)C(=O)N[C@@H](CCCNC(=N)N)C(=O)N[C@H](C(=O)NCC(N)=O)CSCC(=O)N[C@@H](Cc2ccc(O)cc2)C(=O)N(C)[C@@H](C)C(=O)N[C@@H](CC(N)=O)C(=O)N2CCC[C@H]2C(=O)N[C@@H](CO)C(=O)N[C@@H](CCO)C(=O)N2C[C@H](O)C[C@H]2C(=O)N[C@@H](Cc2c[nH]c3ccccc23)C(=O)N[C@@H](CCO)C(=O)N[C@@H](Cc2cn(CC(=O)O)c3ccccc23)C(=O)N1C [Example 6213] ({CH2CO}-Y[NMeA]NPS[hSer][Hyp]W[hSer][Trp(1-CH2COOH)][NMeNle][NMeNle]RCG-NH2; thioether N-14) | 1 to 9.9 nM
CCCC[C@H]1C(=O)N(C)[C@@H](CCCC)C(=O)N[C@@H](CC(C)C)C(=O)N[C@H](C(=O)NCC(N)=O)CSCC(=O)N[C@@H](Cc2ccc(O)cc2)C(=O)N(C)[C@@H](C)C(=O)N[C@@H](CC(N)=O)C(=O)N2CCC[C@H]2C(=O)N[C@@H](CO)C(=O)N[C@@H](CCC(N)=O)C(=O)N2C[C@H](O)C[C@H]2C(=O)N[C@@H](Cc2c[nH]c3ccccc23)C(=O)N[C@@H](CO)C(=O)N[C@@H](Cc2cn(CC(=O)O)c3ccccc23)C(=O)N1C [Example 6216] ({CH2CO}-Y[NMeA]NPSQ[Hyp]WS[Trp(1-CH2COOH)][NMeNle][NMeNle]LCG-NH2; thioether N-14) | 1 to 9.9 nM
CCCC[C@H]1C(=O)N(C)[C@@H](CCCC)C(=O)N[C@@H](CCCNC(=N)N)C(=O)N[C@H](C(=O)NCC(N)=O)CSCC(=O)N[C@@H](Cc2ccc(O)cc2)C(=O)N(C)[C@@H](C)C(=O)N[C@@H](CC(=O)O)C(=O)N2CCC[C@H]2C(=O)N[C@@H](Cc2cnc[nH]2)C(=O)N[C@@H](CCCCN)C(=O)N2C[C@H](O)C[C@H]2C(=O)N[C@@H](Cc2c[nH]c3ccccc23)C(=O)N[C@@H](CCCCN)C(=O)N[C@@H](Cc2cn(CC(=O)O)c3ccccc23)C(=O)N1C [Example 6224] ({CH2CO}-Y[NMeA]DPHK[Hyp]WK[Trp(1-CH2COOH)][NMeNle][NMeNle]RCG-NH2; thioether N-14) | 10 to 99.9 nM
CCCC[C@H]1C(=O)N(C)[C@@H](CCCC)C(=O)N[C@@H](CCCNC(=N)N)C(=O)N[C@H](C(=O)NCC(N)=O)CSCC(=O)N[C@@H](Cc2ccc(O)cc2)C(=O)N(C)[C@@H](C)C(=O)N[C@@H](CC(N)=O)C(=O)N2CCC[C@H]2C(=O)N[C@@H](Cc2cnc[nH]2)C(=O)N[C@@H](CCC(=O)O)C(=O)N2C[C@H](O)C[C@H]2C(=O)N[C@@H](Cc2c[nH]c3ccccc23)C(=O)N[C@@H](CO)C(=O)N[C@@H](Cc2cn(CC(=O)O)c3ccccc23)C(=O)N1C [Example 6228] ({CH2CO}-Y[NMeA]NPHE[Hyp]WS[Trp(1-CH2COOH)][NMeNle][NMeNle]RCG-NH2; thioether N-14) | 1 to 9.9 nM
CCCC[C@H]1C(=O)N(C)[C@@H](CCCC)C(=O)N[C@@H](CC(C)C)C(=O)N[C@H](C(=O)NCC(N)=O)CSCC(=O)N[C@@H](Cc2ccc(O)cc2)C(=O)N(C)[C@@H](C)C(=O)N[C@@H](CCN)C(=O)N2CCC[C@H]2C(=O)N[C@@H](Cc2cnc[nH]2)C(=O)N[C@@H](CCC(=O)O)C(=O)N2C[C@H](O)C[C@H]2C(=O)N[C@@H](Cc2c[nH]c3ccccc23)C(=O)N[C@@H](CO)C(=O)N[C@@H](Cc2cn(CC(=O)O)c3ccccc23)C(=O)N1C [Example 6236] ({CH2CO}-Y[NMeA][Dab]PHE[Hyp]WS[Trp(1-CH2COOH)][NMeNle][NMeNle]LCG-NH2; thioether N-14) | 1 to 9.9 nM
CCCC[C@H]1C(=O)N(C)[C@@H](CCCC)C(=O)N[C@@H](CN)C(=O)N[C@H](C(=O)NCC(N)=O)CSCC(=O)N[C@@H](Cc2ccc(O)cc2)C(=O)N(C)[C@@H](C)C(=O)N[C@@H](CC(N)=O)C(=O)N2CCC[C@H]2C(=O)N[C@@H](Cc2cnc[nH]2)C(=O)N[C@@H](CCC(=O)O)C(=O)N2C[C@H](O)C[C@H]2C(=O)N[C@@H](Cc2c[nH]c3ccccc23)C(=O)N[C@@H](CO)C(=O)N[C@@H](Cc2cn(CC(=O)O)c3ccccc23)C(=O)N1C [Example 6244] ({CH2CO}-Y[NMeA]NPHE[Hyp]WS[Trp(1-CH2COOH)][NMeNle][NMeNle][Dap]CG-NH2; thioether N-14) | 1 to 9.9 nM
